In US9278914B2, “SARMs and method of use thereof” (UNIVERSITY OF TENNESSEE RESEARCH FOUNDATION, priority 2004, dated 2016):

What was measured:
[1] = Metabolic stability measured in human liver microsomes; type: in vitro ADME
Protocol: Microsome reactions were performed under either Phase I or “Phase I and II” conditions, where indicated. Compound stocks (10 mM ACN) were initially initially diluted to a concentration of 60 μM (in 60% ACN/H2O) resulting in a “working stock” stock” solution of 100×. Human liver microsomes were utilized at a final concentration of 0.6 mg/ml. Duplicate wells were used for each time point (0, 6, 10, 30, and 60 minutes). Reactions were carried out at 37° C. in a shaking water bath, and the final concentration of solvent was kept constant at 0.6%. The final volume for each reaction was 600 μl, comprised of […] of 100 mM KPO4 buffer, (pH 7.4); 12.6 μl of HLM (from a 20 mg/ml stock); 6 μl of 100×“working stock” drug compound, and 126 μl of NRS “master mix” solution. At each time point, 100 μl of reaction was removed and added to a sample well containing 100 μl of ice-cold, 100% ACN (plus internal standards), to stop the reaction. The NRS “master mix” is a solution of glucose-6-phosphate dehydrogenase, NADP^+, MgCl2, and glucose-6-phosphate, prepared per manufacturer's instructions (BD Biosciences, Waltham, Mass.). Each 6.0 ml stock of NRS “master mix” solution contains 3.8 […], 1.0 ml solution “A” (Cat. #461220), and 0.2 ml solution “B” (Cat. #461200). Human liver microsomes (lot #0610279, Xenotech Corp.) represented a pool of 60 donors. donors.
Samples were centrifuged at 3,000 rpm for 10 minutes at 4° C. to remove debris and precipitate protein. Approximately 160 μl of supernatant was subsequently transferred to a new sample block for analysis. The concentration of parent drug remaining in each well (expressed as percent remaining versus Time ‘0’, at the beginning of the reaction) was measured by LC/MS, as detailed below.
All samples were analyzed on the MDS/Sciex API4000 Q Trap system with electrospray ionization (ESI) in the positive or negative SIM mode, depending on the compounds. The mobile phases were isocratic at 30% A (0.1% formic acid in water) and 70% B (0.1% formic acid in acetonitrile) with a flow rate of 0.4 mL/min. A Phenomenex Luna Phenyl-Hexyl column (60×2.0 mm ID, 6μ) was used. The injection volume was 10 μL. The total run time per sample was 1.6 to 3.0 minutes. […] The percentage of parent drug compound remaining after each time point was determined relative to the initial measured concentration at the beginning of the reaction (T0 min).
For half-life determination, data was fitted using GraphPad Prism, v 4.03 with the non-linear regression equation “one phase exponential decay” defined as: Y=Span*exp(−K*X)+Plateau (decays to Plateau with a first-order rate constant, K). […] Intrinsic Clearance (μl/min/mg protein) is defined as: CLint=0.693*(1/T1/2)*(ml incubation/mg protein)*1000; This equation can also be expressed as (K*1000)/microsome concentration.

CYP1A2 = CYP1A2 (Homo sapiens (Human), UniProt P05177); assay: In vitro CYP inhibition assay; type: biochemical
Chain of CYP1A2 (P05177 whole entry): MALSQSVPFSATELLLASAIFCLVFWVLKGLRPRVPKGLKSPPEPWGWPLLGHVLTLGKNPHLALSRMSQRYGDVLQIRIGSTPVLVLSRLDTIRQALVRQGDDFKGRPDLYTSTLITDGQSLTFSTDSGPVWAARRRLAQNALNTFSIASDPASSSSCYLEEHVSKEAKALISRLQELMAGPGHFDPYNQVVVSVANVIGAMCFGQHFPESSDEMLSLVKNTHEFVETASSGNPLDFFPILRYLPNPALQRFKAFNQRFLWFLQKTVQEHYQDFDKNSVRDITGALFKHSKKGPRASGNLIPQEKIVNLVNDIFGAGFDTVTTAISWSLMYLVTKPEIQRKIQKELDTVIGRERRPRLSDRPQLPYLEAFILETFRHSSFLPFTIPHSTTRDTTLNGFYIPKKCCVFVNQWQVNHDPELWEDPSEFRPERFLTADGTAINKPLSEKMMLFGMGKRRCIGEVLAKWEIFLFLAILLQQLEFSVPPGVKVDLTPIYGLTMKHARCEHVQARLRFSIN
Protocol: Averages (minus background) and IC50 values were calculated.

## C[C@](O)(COc1ccc(Cl)c(F)c1)C(=O)Nc1ccc(C#N)c(C(F)(F)F)c1 [S-II, (S)-3-(4-chloro-3-fluorophenoxy)-N-(4-cyano-3-(trifluoromethyl)phenyl)-2-hydroxy-2-methylpropanamide]
[1]; Phase I + II
  CLint (ul/min/mg) Phase I + II: <1 µL/min/mg
[1]; Phase I + II, 0.6 μM
  Half Life (minutes) Phase I + II: Stable
[1]; Phase I only, 0.6 μM
  Half Life (minutes) Phase I only: Stable
[1]; human, human liver microsomes, pH 7.4, Phase I only, read-out: CLint (ul/min/mg) Phase I only
  microsomal CLint at 0.6 μM: < 1 µL/min/mg
CYP1A2
  IC50: > 20 µM
